Laboratory results: ChEMBL document CHEMBL1143923, “Synthesis, anti-HIV-1 activity, and modeling studies of N-3 Boc TSAO compound” (Bioorg Med Chem Lett, 2008)
The source made the active and inactive calls. The calls are words filed in the database; no cut-off is given here.

Key:
[1] = system: Human immunodeficiency virus 1; assay: Antiviral activity against HIV1 3B in CEM cells assessed as inhibition of viral replication; assay type: functional, organism-based; conditions: Human immunodeficiency virus 1, 3B, CCRF-CEM
[2] = system: Human immunodeficiency virus 2; assay: Antiviral activity against HIV2 ROD in CEM cells assessed as inhibition of viral replication; assay type: functional, organism-based; conditions: CCRF-CEM
[3] = Cytotoxicity against human CEM cells; assay type: cell-based; conditions: CEM (CCRF-CEM) cells

SMILES	EC50 [1] [nM]	Activity [2]	CC50 [3] [nM]
Cc1cn([C@@H]2O[C@H](CO[Si](C)(C)C(C)(C)C)[C@@]3(OS(=O)(=O)C=C3N)[C@H]2O[Si](C)(C)C(C)(C)C)c(=O)n(C)c1=O	130	inactive	–
Cc1cn([C@@H]2O[C@H](CO[Si](C)(C)C(C)(C)C)[C@@]3(OS(=O)(=O)C=C3N)[C@H]2O[Si](C)(C)C(C)(C)C)c(=O)[nH]c1=O	60	inactive	–
Cc1cn([C@@H]2O[C@H](CO[Si](C)(C)C(C)(C)C)[C@@]3(OS(=O)(=O)C=C3N)[C@H]2O[Si](C)(C)C(C)(C)C)c(=O)n(C(=O)OC(C)(C)C)c1=O	23	inactive	26200
